Reference: the supplement of paper PMC4862054

What was measured:
Experiment in all cases: normalised response (% of control), CellTox Green; higher = less cell death (100 = DMSO, 0 = benzethonium chloride kill control)
Conditions in all cases: incubation time: 72 h
HCC1937 = test system: HCC1937
Method in brief: (§1)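 Breast cancer cell lines (20 µl suspension) were seeded into 384-well plates holding compound at 5 concentrations in 10-fold steps over a compound-specific 10,000-fold range, then incubated 72 h. CellTox Green fluorescence (485/520 nm) was read first, then CellTiter-Glo luminescence after 10 min at room temperature. Each plate was normalised to 0.1 % DMSO (100) and a positive kill control (0). Each value is the normalised signal at a single concentration of the series.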

CAL-148 = test system: CAL-148
Method in brief: as §1

MFM-223 = test system: MFM-223
Method in brief: as §1

MDA-MB-468 = test system: MDA-MB-468
Method in brief: as §1

HCC1599 = test system: HCC1599
Method in brief: as §1

DU-4475 = test system: DU-4475
Method in brief: as §1

MCF-10A = test system: MCF-10A
Method in brief: as §1

MDA-MB-436 = test system: MDA-MB-436
Method in brief: as §1

MDA-MB-231 = test system: MDA-MB-231
Method in brief: as §1

HCC1143 = test system: HCC1143
Method in brief: as §1

CAL-85-1 = test system: CAL-85-1
Method in brief: as §1

Row | SMILES | normalised response (HCC1937) [%] | normalised response (CAL-148) [%] | normalised response (MFM-223) [%] | normalised response (MDA-MB-468) [%] | normalised response (HCC1599) [%] | normalised response (DU-4475) [%] | normalised response (MCF-10A) [%] | normalised response (MDA-MB-436) [%] | normalised response (MDA-MB-231) [%] | normalised response (HCC1143) [%] | normalised response (CAL-85-1) [%]
1 | CNCc1ccc(-c2[nH]c3cc(F)cc4c3c2CCNC4=O)cc1 [Rucaparib] (10000 nM) | 84.9 | 88.9 | 97.1 | 160 | 93.7 | 97.5 | 83.3 | 75.7 | 98.5 | 74.6 | 129
2 | Cc1ccc(-n2nc(C(C)(C)C)cc2NC(=O)Nc2ccc(OCCN3CCOCC3)c3ccccc23)cc1 [Doramapimod] (1000 nM) | 109 | 104 | 100 | 122 | 83.8 | 95.2 | 101 | 87.7 | 102 | 104 | 113
3 | CN[C@@H]1C[C@H]2O[C@@](C)([C@@H]1OC)n1c3ccccc3c3c4c(c5c6ccccc6n2c5c31)C(=O)N[C@H]4O [UCN-01] (10000 nM) | 95.6 | 40.4 | 78.1 | 180 | 80.9 | 76.1 | -57.5 | 83.2 | 1.94 | 72 | -33.4
4 | Cn1c(CCCC(=O)O)nc2cc(N(CCCl)CCCl)ccc21 [Bendamustine] (1000 nM) | 119 | 101 | 105 | 121 | 101 | 103 | 67.1 | 81.8 | 117 | 84.8 | 101
5 | C[C@@H](Oc1cc(-c2cnn(C3CCNCC3)c2)cnc1N)c1c(Cl)ccc(F)c1Cl [Crizotinib] (1000 nM) | 87 | 97.2 | 78.6 | 123 | 111 | 107 | 95.9 | 57.6 | 115 | 131 | 76.1
6 | CC1(C)NC(=O)N(c2ccc([N+](=O)[O-])c(C(F)(F)F)c2)C1=O [Nilutamide] (1000 nM) | 98 | 92 | 95.9 | 115 | 107 | 103 | 115 | 103 | 115 | 72.8 | 103
7 | Clc1ccc(Nc2nnc(Cc3ccncc3)c3ccccc23)cc1 [Vatalanib] (10000 nM) | 123 | 53.2 | 97.1 | 86.5 | 114 | 107 | 55.9 | 107 | 129 | 125 | 76.8
8 | Clc1ccc(Nc2nnc(Cc3ccncc3)c3ccccc23)cc1 [Vatalanib] (1000 nM) | 134 | 98.1 | 103 | 138 | 104 | 101 | 84.5 | 102 | 118 | 64.7 | 104
9 | CO[C@H]1/C=C\C=C(/C)C(=O)NC2=CC(=O)C(NCCN(C)C)=C(C[C@@H](C)C[C@H](OC)[C@H](O)[C@@H](C)/C=C(\C)[C@@H]1OC(N)=O)C2=O [Alvespimycin] (100 nM) | 118 | 48.7 | 89.6 | 104 | 107 | 68.1 | 33.3 | 89.6 | 67.9 | 69.1 | 71.6
10 | Cn1c(Nc2ccc(C(F)(F)F)cc2)nc2cc(Oc3ccnc(-c4ncc(C(F)(F)F)[nH]4)c3)ccc21 [RAF265] (1000 nM) | 82 | 80.4 | 21.6 | 145 | 110 | 99.4 | 75.4 | 107 | 113 | 122 | 55.5
11 | Cn1c(Nc2ccc(C(F)(F)F)cc2)nc2cc(Oc3ccnc(-c4ncc(C(F)(F)F)[nH]4)c3)ccc21 [RAF265] (100 nM) | 109 | 107 | 102 | 115 | 98.6 | 105 | 107 | 94.9 | 114 | 96.9 | 86.3
12 | CN[C@@H]1C[C@H]2O[C@@](C)([C@@H]1OC)n1c3ccccc3c3c4c(c5c6ccccc6n2c5c31)C(=O)N[C@H]4O [UCN-01] (1000 nM) | 106 | 89.2 | 67.8 | 59.7 | 79.3 | 78.3 | -24.5 | 94.5 | 32.6 | 53.2 | 29.5
13 | CO[C@H]1/C=C\C=C(/C)C(=O)NC2=CC(=O)C(NCCN(C)C)=C(C[C@@H](C)C[C@H](OC)[C@H](O)[C@@H](C)/C=C(\C)[C@@H]1OC(N)=O)C2=O [Alvespimycin] (1000 nM) | 34.5 | 45.8 | 86.5 | 34.9 | 104 | 79.2 | 23.5 | 106 | 33 | -15.9 | 33.3
14 | Cc1ccc(C(=O)Nc2ccc(CN3CCN(C)CC3)c(C(F)(F)F)c2)cc1C#Cc1cnc2cccnn12 [Ponatinib] (1000 nM) | 15 | 60.9 | 96.4 | 164 | 103 | 93.3 | 97 | 95.6 | -32.9 | 71.3 | 60.8
15 | Oc1nc(-c2ccc(C(F)(F)F)cc2)nc2c1CSCC2 [XAV-939] (10000 nM) | 93.2 | 101 | 101 | 115 | 103 | 103 | 103 | 95.5 | 101 | 103 | 105
16 | C=C(c1ccc(C(=O)O)cc1)c1cc2c(cc1C)C(C)(C)CCC2(C)C [Bexarotene] (1000 nM) | 94.8 | 75.7 | 103 | 111 | 107 | 99.3 | 85 | 98.4 | 114 | 83.9 | 95.7
